Legend:
[1] = molecular target: T1, Myelin-associated glycoprotein (Mus musculus, UniProt P20917); assay: Binding affinity to mouse MAGd1-3Fc domain expressed in CHO-Lec1 cells by surface plasmon resonance
T1 sequence (P20917 whole entry): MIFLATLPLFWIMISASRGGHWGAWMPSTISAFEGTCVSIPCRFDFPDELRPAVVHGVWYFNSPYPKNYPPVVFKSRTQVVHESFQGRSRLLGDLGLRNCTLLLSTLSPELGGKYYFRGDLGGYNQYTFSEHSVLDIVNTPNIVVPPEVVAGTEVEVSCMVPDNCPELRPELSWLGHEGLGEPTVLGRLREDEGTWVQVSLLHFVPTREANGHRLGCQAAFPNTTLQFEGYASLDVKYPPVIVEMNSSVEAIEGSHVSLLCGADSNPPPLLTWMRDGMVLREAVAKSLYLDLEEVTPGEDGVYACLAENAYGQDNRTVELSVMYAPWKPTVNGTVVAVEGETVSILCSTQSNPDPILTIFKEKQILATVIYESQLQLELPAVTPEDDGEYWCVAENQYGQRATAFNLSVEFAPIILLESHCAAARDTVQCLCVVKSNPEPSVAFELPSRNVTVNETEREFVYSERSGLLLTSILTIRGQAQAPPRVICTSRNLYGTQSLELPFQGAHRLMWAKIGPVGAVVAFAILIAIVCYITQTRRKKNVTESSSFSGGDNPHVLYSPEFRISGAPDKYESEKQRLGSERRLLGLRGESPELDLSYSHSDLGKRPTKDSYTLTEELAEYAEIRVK

[2] = molecular target: T2, Myelin-associated glycoprotein (Mus musculus) (UniProt P20917); assay: Antagonist activity at mouse MAGd1-3Fc domain expressed in CHO-Lec1 cells by fluorescent hapten binding assay relative to (2R,4R,5S,6R)-5-acetamido-6-((1R,2R)-3-benzamido-1,2-dihydroxypropyl)-2-(benzyloxy)-4-hydroxytetrahydro-2H-pyran-2-carboxylate; assay type: cell-based
T2 sequence (whole entry): T1 sequence (P20917 whole entry)

Compound | Kd [1] [µM] | Ratio IC50 [2]
CC(=O)N[C@H]1[C@H]([C@H](O)[C@H](O)CNC(=O)c2ccccc2)O[C@@](OCc2ccccc2)(C(=O)O)C[C@@H]1O | 26 | 
O=C(CF)N[C@H]1[C@H]([C@H](O)[C@H](O)CNC(=O)c2ccc(Cl)cc2)O[C@@](OCc2cccc(F)c2F)(C(=O)O)C[C@@H]1O | 0.5 | 0.02
CC(=O)N[C@H]1C[C@](OCc2ccccc2)(C(=O)O)C[C@@H](OCCNC(=O)c2ccc(Cl)cc2)[C@@H]1NC(=O)CF | > 800 | 4300

— ChEMBL document CHEMBL1250550, “Design, synthesis, biological evaluation, and modeling of a non-carbohydrate antagonist of the myelin-associated glycoprotein” (Bioorg Med Chem, 2010)
